Read-outs that look alike come from different tables or passages of the source.
What was measured:
[1] = system: Key Broadleaf Weed and Crop Species; assay: Post-Emergent Test II (Table 5); type: in vivo; settings: post-emergence, 336 h; for pest or weed control at 70 g/ha: application rate 70 (kg ai/ha; footnote: g ai/ha); for pest or weed control at 140 g/ha: application rate 140 (kg ai/ha; footnote: g ai/ha)
In short: (§1)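 Seedlings are raised 7-21 days in Metro-Mix 360 (pH 6.0-6.8) under greenhouse conditions, then sprayed at the first or second true leaf stage. Application is 187 L/ha, with serial rates down to 1/16× of the highest. Plants are subirrigated, and percent injury is rated visually after 14 days.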

[2] = system: Key Grass and Sedge Weeds as well as Grass Crops; assay: Post-Emergent Test II (Table 6); type: in vivo; settings: post-emergence, 336 h, 14 days after application; for pest or weed control at 70 g/ha: 70 g ai/ha; for pest or weed control at 140 g/ha: 140 g ai/ha
In short: as §1

[3] = Abutilon theophrasti, ABUTH: velvetleaf (Abutilon theophrasti), read-out: Visual Growth Reduction (%) 14 Days After Application ABUTH
[4] = Amaranthus retroflexus, AMARE: redroot pigweed (Amaranthus retroflexus), read-out: Visual Growth Reduction (%) 14 Days After Application AMARE
[5] = Brassica napus, BRSSS: oilseed rape, canola (Brassica napus), read-out: Visual Growth Reduction (%) 14 Days After Application BRSSS
[6] = Chenopodium album, CHEAL: lambsquarters (Chenopodium album), read-out: Visual Growth Reduction (%) 14 Days After Application CHEAL
[7] = Euphorbia heterophylla, EPHHL: wild poinsettia (Euphorbia heterophylla), read-out: Visual Growth Reduction (%) 14 Days After Application EPHHL
[8] = Helianthus annuus, HELAN: sunflower (Helianthus annuus), read-out: Visual Growth Reduction (%) 14 Days After Application HELAN
[9] = Viola tricolor, VIOTR: wild pansy (Viola tricolor), read-out: Visual Growth Reduction (%) 14 Days After Application VIOTR
[10] = CYPSS, read-out: Visual Growth Reduction (%) 14 Days After Application CYPSS
[11] = DIGSA: crabgrass (Digitaria sanguinalis), read-out: Visual Growth Reduction (%) 14 Days After Application DIGSA
[12] = ECHSS, read-out: Visual Growth Reduction (%) 14 Days After Application ECHSS
[13] = ORYSS (crop), read-out: Visual Growth Reduction (%) 14 Days After Application ORYSS
[14] = SETFA: giant foxtail (Setaria faberi), read-out: Visual Growth Reduction (%) 14 Days After Application SETFA
[15] = SORVU: grain sorghum (Sorghum vulgare), read-out: Visual Growth Reduction (%) 14 Days After Application SORVU
[16] = TRZSS (crop), read-out: Visual Growth Reduction (%) 14 Days After Application TRZSS
[17] = ZEAMX: maize, corn (Zea mays), read-out: Visual Growth Reduction (%) 14 Days After Application ZEAMX

Row | SMILES | pest or weed control at 70 g/ha [1, 3] [%] | pest or weed control at 140 g/ha [1, 3] [%] | pest or weed control at 70 g/ha [1, 4] [%] | pest or weed control at 140 g/ha [1, 4] [%] | pest or weed control at 70 g/ha [1, 5] [%] | pest or weed control at 140 g/ha [1, 5] [%] | pest or weed control at 70 g/ha [1, 6] [%] | pest or weed control at 140 g/ha [1, 6] [%] | pest or weed control at 70 g/ha [1, 7] [%] | pest or weed control at 140 g/ha [1, 7] [%] | pest or weed control at 70 g/ha [1, 8] [%] | pest or weed control at 140 g/ha [1, 8] [%] | pest or weed control at 70 g/ha [1, 9] [%] | pest or weed control at 140 g/ha [1, 9] [%] | melting point [°C] | pest or weed control at 70 g/ha [2, 10] [%] | pest or weed control at 140 g/ha [2, 10] [%] | pest or weed control at 70 g/ha [2, 11] [%] | pest or weed control at 140 g/ha [2, 11] [%] | pest or weed control at 70 g/ha [2, 13] [%] | also measured
1 | COC(=O)c1nc(-c2ccc(Cl)nc2OC)cc(N)c1Cl [Compound 48] | 85 to 94 | 85 to 94 | 95 to 100 | 95 to 100 | 0 to 29 | 45 to 59 | 95 to 100 | 95 to 100 | 0 to 29 | 0 to 29 | 85 to 94 | 85 to 94 | 45 to 59 | 60 to 74 | 109 to 111 | 0 to 29 | 0 to 29 | 0 to 29 | 0 to 29 | 0 to 29 | pest or weed control at 70 g/ha [2, 12]: 0 to 29%; pest or weed control at 140 g/ha [2, 12]: 0 to 29%; pest or weed control at 140 g/ha [2, 13]: 0 to 29%; pest or weed control at 70 g/ha [2, 14]: 0 to 29%; pest or weed control at 140 g/ha [2, 14]: 0 to 29%; pest or weed control at 70 g/ha [2, 15]: 0 to 29%; pest or weed control at 140 g/ha [2, 15]: 0 to 29%; pest or weed control at 70 g/ha [2, 16]: 0 to 29%; pest or weed control at 140 g/ha [2, 16]: 0 to 29%; pest or weed control at 70 g/ha [2, 17]: 0 to 29%; pest or weed control at 140 g/ha [2, 17]: 45 to 59%
2 | COC(=O)c1nc(-c2ccc(Cl)c(F)c2C)cc(N)c1Cl [Compound 73] | 95 to 100 | 95 to 100 | 95 to 100 | 95 to 100 | 95 to 100 | 95 to 100 | 95 to 100 | 95 to 100 | 75 to 84 | 75 to 84 | 95 to 100 | 95 to 100 | 85 to 94 | 95 to 100 | 128 to 134 | 95 to 100 | 95 to 100 | 0 to 29 | 0 to 29 | 0 to 29 | pest or weed control at 70 g/ha [2, 12]: 30 to 44%; pest or weed control at 140 g/ha [2, 12]: 45 to 59%; pest or weed control at 140 g/ha [2, 13]: 0 to 29%; pest or weed control at 70 g/ha [2, 14]: 30 to 44%; pest or weed control at 140 g/ha [2, 14]: 45 to 59%; pest or weed control at 70 g/ha [2, 15]: 45 to 59%; pest or weed control at 140 g/ha [2, 15]: 60 to 74%; pest or weed control at 70 g/ha [2, 16]: 45 to 59%; pest or weed control at 140 g/ha [2, 16]: 60 to 74%; pest or weed control at 70 g/ha [2, 17]: 60 to 74%; pest or weed control at 140 g/ha [2, 17]: 75 to 84%
3 | Cc1c(-c2ccc(C(F)(F)F)nc2)nc(C(=O)O)c(Cl)c1N [Compound 51, 4-amino-5-chloro-3-methyl-6′-(trifluoromethyl)-[2,3′-bipyridine]-6-carboxylic acid] | 0 to 29 | 0 to 29 | 0 to 29 | 0 to 29 | 60 to 74 | 85 to 94 | 0 to 29 | 85 to 94 | 0 to 29 | 0 to 29 | 85 to 94 | 85 to 94 | 0 to 29 | 0 to 29 | 140 to 160 | 95 to 100 | 95 to 100 | 60 to 74 | 60 to 74 | 0 to 29 | pest or weed control at 140 g/ha [2, 13]: 0 to 29%; pest or weed control at 70 g/ha [2, 15]: 75 to 84%; pest or weed control at 140 g/ha [2, 15]: 75 to 84%; pest or weed control at 70 g/ha [2, 16]: 30 to 44%; pest or weed control at 140 g/ha [2, 16]: 45 to 59%; pest or weed control at 70 g/ha [2, 17]: 60 to 74%; pest or weed control at 140 g/ha [2, 17]: 60 to 74%
